In assay [1] the target is T1, TFPI (Homo sapiens, UniProt P10646). Briefly: IC50 [nm].
Assay [2] addresses T2, Tissue Factor Pathway Inhibitor (TFPI) (Homo sapiens, UniProt P10646). Description: IC50 ELISA | IC50 [nM]. For orientation: ELISA stands for enzyme-linked immunosorbent assay.
Assay [3] concerns the target T2, Tissue Factor Pathway Inhibitor (TFPI). Description: IC50 ELISA | IC50 [nM]. The source holds these as a separate data set.
Assay [4] has as its target recombinant human full length TFPI (Homo sapiens, UniProt P10646). Briefly: Progression curve | EC50 (µM).
Assay [5] deals with T1, TFPI. Briefly: IC50 Mean (nM].

pEC50, pIC50: −log10 of the molar value. Like-named read-outs stand apart in the source and are kept apart here. Where a SMILES comes first, the peptide text is derived from it. Bridges are numbered along the chain shown (N, C = ends). [ ]: non-standard residue; d: D form. Aib = CC(C)(N)C(=O)O; Sar = CNCC(=O)O

T2 sequence (P10646 29-304 limits assumed): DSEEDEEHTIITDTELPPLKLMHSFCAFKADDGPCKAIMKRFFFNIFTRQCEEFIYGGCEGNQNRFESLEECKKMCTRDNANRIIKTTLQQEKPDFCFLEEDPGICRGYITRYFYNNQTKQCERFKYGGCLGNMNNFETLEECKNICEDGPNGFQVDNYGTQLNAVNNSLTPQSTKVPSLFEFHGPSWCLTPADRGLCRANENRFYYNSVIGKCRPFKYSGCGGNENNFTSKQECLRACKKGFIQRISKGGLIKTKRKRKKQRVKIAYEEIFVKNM
T1 sequence (P10646 29-304 limits assumed): as above
Chain of recombinant human full length TFPI (P10646 29-304 limits assumed): as above

One may read the pIC50 as the negative decadic logarithm of the IC50, by convention in mol/L. Low values mean a large IC50, high ones a small IC50. Compound `CSCC[C@@H]1NC(=O)CNC(=O)[C@@H](NC(=O)[C@H](Cc2ccccc2)NC(=O)[C@H](Cc2c[nH]c3ccccc23)NC(=O)[C@H](CCCCN)NC(=O)[C@H](Cc2ccc(O)cc2)NC(=O)[C@H](CCCNC(=N)N)NC(=O)[C@H](CO)NC(=O)[C@H](C)NC(=O)CNC(=O)[C@H](CO)NC(C)=O)CSSC[C@@H](C(=O)N[C@H](C(=O)N[C@@H](Cc2c[nH]c3ccccc23)C(=O)N[C@H](C(=O)N[C@@H](CCCCN)C(N)=O)C(C)C)C(C)C)NC(=O)[C@H](CO)NC(=O)[C@H](CCSC)NC(=O)[C@H]([C@@H](C)O)NC(=O)CNC(=O)[C@H](CCCCN)NC(=O)[C@H](CCSC)NC(=O)[C@H](CC(=O)O)NC(=O)[C@H](CCCNC(=N)N)NC1=O` [JBT0320 | 1103] (Ac-SGASRYKWFCGMRDMKGTMSCVWVK-NH2; disulfide 10-21) had a pIC50 at TFPI [1] of 6.01. Compound `CSCC[C@@H]1NC(=O)CNC(=O)[C@@H](NC(=O)[C@H](Cc2ccccc2)NC(=O)[C@H](Cc2c[nH]c3ccccc23)NC(=O)[C@H](CCCCN)NC(C)=O)CSSC[C@@H](C(=O)N[C@H](C(=O)N[C@@H](Cc2c[nH]c3ccccc23)C(=O)N[C@H](C(=O)N[C@@H](CCCCN)C(=O)N[C@@H](Cc2ccccc2)C(=O)N[C@@H](CCCNC(=N)N)C(=O)N[C@@H](Cc2ccc(O)cc2)C(=O)N[C@@H](CC(=O)O)C(=O)N[C@H](C(=O)N[C@@H](CO)C(N)=O)[C@@H](C)O)C(C)C)C(C)C)NC(=O)[C@H](CO)NC(=O)[C@H](CCSC)NC(=O)[C@H]([C@@H](C)O)NC(=O)CNC(=O)[C@H](CCCCN)NC(=O)[C@H](CCSC)NC(=O)[C@H](CC(=O)O)NC(=O)[C@H](CCCNC(=N)N)NC1=O` [JBT0324 | 1155] (Ac-KWFCGMRDMKGTMSCVWVKFRYDTS-NH2; disulfide 4-15) gave a pIC50 against TFPI [1] of 5.71. `CC(=O)N[C@@H](Cc1ccccc1)C(=O)N[C@@H](CCC(N)=O)C(=O)N[C@@H](CO)C(=O)N[C@@H](CCCCN)C(=O)N(C)CC(=O)N[C@@H](CC(N)=O)C(=O)N[C@H](C(=O)N[C@@H](Cc1ccccc1)C(=O)N[C@H](C(=O)N[C@H](C(=O)NCC(=O)N[C@@H](Cc1ccc(O)cc1)C(=O)N[C@@H](Cc1ccccc1)C(=O)N[C@@H](CCC(=O)O)C(=O)N[C@@H](CCCNC(=N)N)C(=O)N[C@@H](CC(C)C)C(=O)NC(C)(C)C(=O)N[C@@H](C)C(=O)N[C@@H](CCCCN)C(=O)N[C@@H](CC(C)C)C(N)=O)[C@@H](C)O)C(C)C)C(C)C` [JBT1585 | 4018] (Ac-FQSK[Sar]NVFVTGYFERL[Aib]AKL-NH2) had a pIC50 in assay [2] of 7.82. Take “Ac-FQSK-dtc-NVHVDGYFERL-Aib-AKL-NH2 [JBT2285 | 4047]”: in assay [2], the pIC50 was 8.46. As a reminder, the pEC50 is −log10 of the EC50, conventionally taken in molar units. “Ac-FQSKp-C(ME-400MA)-VHVDGYFERL-Aib-AKL-NH2 [JBT2402 | 4121]” showed a pIC50 in assay [3] of 7.69. In addition, the pEC50 in assay [4] was 8.59. “Ac-FQSKpNVHV-C(ME-400MA)-GYFERL-Aib-AKL-NH2 [JBT2403 | 4122]”: the pIC50 in assay [3] was 7.64. The pEC50 in assay [4] is 7.82. Turning to “Ac-K(FAM)KSGVGRLQVAFQSKKNVFVFGYFERLRAKLTSKK-NH2 [JBT0291 | 15]”, the pIC50 on TFPI [5] was 7.34.
